In US20030161893A1, “PTPase inhibitors and methods of using the same” (priority 2001, published 2003):

Experiments:
Stat1 [1] = experiment: IFN-alpha-induced Stat1 tyrosine phosphorylation, WM9 cells; format: cell-based, human; conditions: WM9, 5 hours post-stimulation
Description: (§1) For induction of Stat1 tyrosine phosphorylation by IFN-alpha in the absence or presence of sodium stibogluconate, cells grown in 10% FCS RPMI 1640 medium at 37° C. were stimulated with IFN-alpha (50 u/ml) for various time points and treated with or without sodium stibogluconate for 5 minutes prior to termination by lysing the cells in cold lysis buffer (1% NP-40; 50 mM Tris, pH 7.4; 100 mM NaCl; 1 mM EDTA, 10% glycerol, 10 mM sodium molybdic acid and 4 mM AEBSF).
(§2) Cell lysates were prepared by lysing cells in cold lysis buffer for 30 min and cleared by centrifuging at 14,000 rpm at 4° C. for 15 min. For SDS-PAGE, cell lysates were mixed with equal volume of 2×SDS-PAGE sample buffer, heated at 90° C. for 5 min and separated in 10% SDS-PAGE gels. Cellular proteins in SDS-PAGE gels were transferred to nitrocellulose membrane (Schleicher & Schuell, Keene, N.H.), blocked in 5% milk, probed with antibodies and detected by using an enhanced chemiluminescence kit (ECL, Amersham, Arlington Heights, Ill.).

MKP1 = target: T1, MKP1 (Homo sapiens, UniProt P28562); experiment: In vitro PTPase assay, GST/MKP1 fusion protein; format: biochemical
T1 construct: a pGEX construct containing the coding region of MKP1 cDNA derived by RT-PCR; made in house; host or cells: DH5a bacteria (E. coli)
T1 sequence (P28562 1-367): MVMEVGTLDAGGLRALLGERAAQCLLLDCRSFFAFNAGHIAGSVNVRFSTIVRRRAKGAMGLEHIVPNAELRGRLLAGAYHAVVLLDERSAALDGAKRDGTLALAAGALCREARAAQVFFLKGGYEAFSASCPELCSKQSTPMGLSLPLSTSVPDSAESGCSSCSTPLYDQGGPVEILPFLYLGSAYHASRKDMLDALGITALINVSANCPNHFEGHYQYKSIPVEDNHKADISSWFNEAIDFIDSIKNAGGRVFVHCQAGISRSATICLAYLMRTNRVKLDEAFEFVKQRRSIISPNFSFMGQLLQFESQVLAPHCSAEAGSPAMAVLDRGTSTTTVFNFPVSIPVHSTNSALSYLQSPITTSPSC

DS cells = experiment: Cell proliferation assay (MTT), DS lymphoma cells; format: cell-based, human; conditions: day 3; IFN-alpha 1,000 u/ml
Description: (§3) For cell proliferation assays, cells were grown in 10% FCS culture medium containing various amounts of IFNs and/or sodium stibogluconate in 96 well plates and cultured at 37° C. for 3 or 6 days as indicated. The numbers of viable cells in proliferation assays were determined by MTT assays as described in Phatak et al., J. Immunol. 167, 3391 (2001).

Tyk2/Stat3 = experiment: GM-CSF-induced Tyk2/Stat3 tyrosine phosphorylation in SHP-1-deficient cells; format: cell-based
TF-1 cells = experiment: TF-1 cell proliferation assay; format: cell-based, human
Description: The murine hematopoietic cell line Baf3 was maintained in RPMI 1640 medium supplemented with 10% fetal calf serum (FCS) and murine IL-3 (20 units/ml) as described previously in Damen et al., J. Biol. Chem. 270, 23402 (1995). Human myeloid cell line TF-1 was maintained in RPMI 1640 supplemented with 10% FCS and 40 ng/ml of recombinant human GM-CSF as described previously in Thomassen et al., Clin. Immunol. 95, 85 (2000). For cell proliferation assays, cells were washed in 10% FCS medium twice, resuspended in 10% FCS medium, incubated at 37° C. for 16 hours, and then cultured at 37° C. in 10% FCS medium containing various amounts of cytokines, sodium stibogluconate, or potassium antimonyl tartrate for 3-6 days as indicated. The cell numbers in proliferation assays were determined by an MTT assay or by microscopic cell counting as indicated.

WiT49-N1 cells = experiment: Cell proliferation assay (MTT), WiT49-N1 Wilms tumor cells; format: cell-based, human; conditions: day 6
Description: as §3

HEY cells = experiment: Cell growth assay (MTT), HEY ovarian cancer cells; format: cell-based, human; conditions: 100 μg/ml, day 6
Description: (§4) NIH3T3 (Yi, et al., Blood 85, 87 (1995)), WM9 (Forsberg, et al., Proc. Nat. Acad Sci. USA 90, 393 (1993)), DU145 (Mickey, et al., Cancer Res. 37, 4049 (1977)), LoVo (Drewinko, et al., Cancer Res. 36, 467 (1976)), HEY (Buick, et al., Cancer Res. 45, 3668 (1985)), U251 (Yoshida, et al., Cancer 50, 410 (1982)), A549 (Giard, et al., J. Natl. Cancer Inst. 51, 1417 (1973)) and SK-N-SH (Helson, et al., Cancer Res. 35, 2594 (1975)) cell lines have been described and were cultured in RPMI 1640 supplemented with 10% fetal calf serum (FCS). For measurement of sodium stibogluconate effects on cell growth in vitro, cells were cultured in the absence (−) or presence (+) of various amounts of sodium stibogluconate for 6 days with viable cells quantified by MTT assays (Mosmann, J. Imunol. Methods 65, 55 (1983)). Percentages of growth inhibition by sodium stibogluconate were calculated (+/−×%).

WM9 cells = experiment: Cell proliferation assay (MTT), WM9 melanoma cells; format: cell-based, human
Description: as §3
Dose response curves were generated for each drug alone, and also the combinations. Median effect plots were generated for IFNs alone, sodium stibogluconate alone, and the combination. The combination index (CI) was determined and plotted vs. fraction affected (FA). Data were analyzed in both modes, mutually exclusive and mutually nonexclusive. The interaction between two mutually nonexclusive drugs is described by the Equation CI=D1/D×1+D2/D×2+D1D2/D×1D×2, where D×1 and D×2 are the doses of drug 1 and drug 2 that are required to inhibit growth×%. […] When CI<1, drugs are synergistic, when CI=1, drugs are additive, and when CI>1, drugs are antagonistic.

Stat1 [2] = experiment: IFN-alpha-induced Stat1 tyrosine phosphorylation, WiT49-N1 cells; format: cell-based, human
Description: as §1, §2

U251 cells = experiment: Cell growth assay (MTT), U251 glioma cells; format: cell-based, human; conditions: 100 μg/ml, day 6
Description: as §4

O.O.O.O.O.O.O.O.O.O=C([O-])[C@@H]1[O][Sb]2([O-])([O][Sb]34([OH])[O][C@H]([C@H](O)CO)[C@H]([O]3)[C@H](C(=O)[O-])[O]4)[O][C@H]([C@H](O)CO)[C@@H]1[O]2.[Na+].[Na+].[Na+] [sodium stibogluconate]
IFN-alpha-induced Stat1 tyrosine phosphorylation (Stat1 [1]): Enhanced | inhibition of MKP1 (MKP1): no obvious effects | inhibitory activity against MKP1 (MKP1): no obvious inhibitory activity | activity against DS cells (DS cells): modest activity | GM-CSF-induced Tyk2/Stat3 tyrosine phosphorylation (Tyk2/Stat3): augmented | GM-CSF-induced proliferation of TF-1 cells (TF-1 cells; 50 μg/ml, GM-CSF 5-40 ng/ml): augmented | growth inhibition activity of IFN-alpha in TF-1 cells in presence of drug (TF-1 cells; 50 μg/ml, with GM-CSF): enhanced | effect of low doses on GM-CSF-induced TF-1 growth (TF-1 cells; 12.5-50 μg/ml): no negative effect on GM-CSF-induced cell growth | growth inhibition of WiT49-N1 with added IFN-alpha (WiT49-N1 cells): not enhanced by IFN-alpha | sensitivity of WiT49-N1 cells (WiT49-N1 cells): sensitive | cell killing, HEY (HEY cells): near-complete cell killing | killing of WM9 cells, single agent (WM9 cells; 50 μg/ml and 100 μg/ml, day 6 culture): killed all cells | IFN-alpha-induced growth inhibition of WM9 in presence of drug (WM9 cells; day 6): augmented | IFN-alpha- and IFN-beta-induced growth inhibition of WM9 in presence of drug (WM9 cells; day 6, most dramatic at 12.5-50 μg/ml and IFNs 12.5-50 units/ml): greatly enhanced | IFN-alpha-induced Stat1 tyrosine phosphorylation (Stat1 [2]): failed to enhance | cell killing, U251 (U251 cells): near-complete cell killing
